Experimental data taken from the supplement of paper PMC11451515.

System: P12-Ichikawa
Experiment: cell viability relative to DMSO control; higher = less cytotoxic
Details: 48 h
In short: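 NOMO1 or SEM cells were plated at 500 cells/well and P12-Ichikawa cells at 1000 cells/well in 1536-well plates (5 μl), after each leukemia line had been adapted for at least four passages in each medium. Pin dosing delivered library compounds in DMSO at 11 threefold concentrations, 47 μM to 0.79 nM. CellTiter-Glo One luminescence was read after 48 h at 37°C. Viability is reported as a per-plate percentage of DMSO wells, with cell-free wells as background.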

[1] = HPLM + 10% dialyzed FBS, 0.000781 µM
[2] = HPLM + 10% dialyzed FBS, 0.00234 µM
[3] = HPLM + 10% dialyzed FBS, 0.00702 µM
[4] = HPLM + 10% dialyzed FBS, 0.0211 µM
[5] = HPLM + 10% dialyzed FBS, 0.0632 µM
[6] = HPLM + 10% dialyzed FBS, 0.19 µM
[7] = HPLM + 10% dialyzed FBS, 0.569 µM
[8] = HPLM + 10% dialyzed FBS, 1.71 µM
[9] = HPLM + 10% dialyzed FBS, 5.12 µM
[10] = HPLM + 10% dialyzed FBS, 15.4 µM
[11] = HPLM + 10% dialyzed FBS, 46.1 µM
[12] = RPMI 5 mM glucose + 10% FBS, 0.000781 µM
[13] = RPMI 5 mM glucose + 10% FBS, 0.00234 µM
[14] = RPMI 5 mM glucose + 10% FBS, 0.00702 µM
[15] = RPMI 5 mM glucose + 10% FBS, 0.0211 µM
[16] = RPMI 5 mM glucose + 10% FBS, 0.0632 µM
[17] = RPMI 5 mM glucose + 10% FBS, 0.19 µM
[18] = RPMI 5 mM glucose + 10% FBS, 0.569 µM
[19] = RPMI 5 mM glucose + 10% FBS, 1.71 µM
[20] = RPMI 5 mM glucose + 10% FBS, 5.12 µM
[21] = RPMI 5 mM glucose + 10% FBS, 15.4 µM
[22] = RPMI 5 mM glucose + 10% FBS, 46.1 µM
[23] = RPMI 5 mM glucose + 10% dialyzed FBS, 0.000781 µM
[24] = RPMI 5 mM glucose + 10% dialyzed FBS, 0.00234 µM
[25] = RPMI 5 mM glucose + 10% dialyzed FBS, 0.00702 µM
[26] = RPMI 5 mM glucose + 10% dialyzed FBS, 0.0211 µM
[27] = RPMI 5 mM glucose + 10% dialyzed FBS, 0.0632 µM
[28] = RPMI 5 mM glucose + 10% dialyzed FBS, 0.19 µM
[29] = RPMI 5 mM glucose + 10% dialyzed FBS, 0.569 µM
[30] = RPMI 5 mM glucose + 10% dialyzed FBS, 1.71 µM
[31] = RPMI 5 mM glucose + 10% dialyzed FBS, 5.12 µM
[32] = RPMI 5 mM glucose + 10% dialyzed FBS, 15.4 µM
[33] = RPMI 5 mM glucose + 10% dialyzed FBS, 46.1 µM

Structure (SMILES) | cell viability [1] [%] | cell viability [2] [%] | cell viability [3] [%] | cell viability [4] [%] | cell viability [5] [%] | cell viability [6] [%] | cell viability [7] [%] | cell viability [8] [%] | cell viability [9] [%] | cell viability [10] [%] | cell viability [11] [%] | cell viability [12] [%] | cell viability [13] [%] | cell viability [14] [%] | cell viability [15] [%] | cell viability [16] [%] | cell viability [17] [%] | cell viability [18] [%] | cell viability [19] [%] | cell viability [20] [%] | cell viability [21] [%] | cell viability [22] [%] | cell viability [23] [%] | cell viability [24] [%] | cell viability [25] [%] | cell viability [26] [%] | cell viability [27] [%] | cell viability [28] [%] | cell viability [29] [%] | cell viability [30] [%] | cell viability [31] [%] | cell viability [32] [%] | cell viability [33] [%]
C=CC(=O)Nc1cccc(Nc2nc(NC3CCC(N(C)C)CC3)nc3c2ncn3C(C)C)c1 (stereo unspecified) | 107 | 115 | 112 | 106 | 112 | 113 | 105 | 85.3 | 36.7 | 11.1 | 5.85 | 115 | 114 | 114 | 112 | 115 | 112 | 107 | 94.8 | 28.6 | 8.46 | 5.44 | 108 | 110 | 108 | 116 | 122 | 119 | 123 | 114 | 35.5 | 11 | 6.55
ClC1=CC\2=C(OC3=C(C=CC=C3)\N=C2N4CCNCC4)C=C1 | 100 | 104 | 113 | 103 | 109 | 101 | 107 | 109 | 99.7 | 98 | 95.5 | 103 | 105 | 107 | 105 | 93.8 | 90.6 | 99.6 | 95.2 | 90.3 | 87.7 | 87.8 | 100 | 102 | 100 | 104 | 99.3 | 99.7 | 99.1 | 92.5 | 89.3 | 98.3 | 88.6
C[S+](=O)([O-])c1ccc(-c2cnc(N)c(C(=O)Nc3ccccc3)n2)cc1 | 99.6 | 104 | 107 | 107 | 117 | 119 | 118 | 118 | 114 | 88.4 | 87.2 | 103 | 119 | 111 | 112 | 123 | 122 | 116 | 121 | 114 | 76.9 | 80.5 | 104 | 117 | 120 | 120 | 121 | 115 | 124 | 114 | 117 | 72.6 | 69.7
COC1=CC=C(C=C1O)C/2=C/C(=O)C3=C(O2)C=C(O)C=C3O | 96.2 | 95.5 | 96.4 | 97 | 95.2 | 90.3 | 86.4 | 90.8 | 86.7 | 91.9 | 88.4 | 98 | 92.1 | 95.3 | 98.9 | 104 | 92.5 | 90.4 | 87.5 | 87.3 | 91.3 | 89.9 | 86.8 | 83.9 | 81.7 | 76.9 | 78.1 | 76.5 | 77.9 | 79.5 | 79.5 | 80.7 | 80.7
CN1\C(=C(\O)C2=C(C=CC=C2)[S+]1([O-])=O)C(=O)NC3=CC=CC=N3 | 96.6 | 104 | 109 | 119 | 107 | 110 | 70.9 | 101 | 73.1 | 30.5 | 12.2 | 104 | 111 | 114 | 105 | 108 | 109 | 82.4 | 105 | 70.2 | 42 | 10.4 | 96.9 | 97.7 | 99.5 | 112 | 105 | 106 | 85.7 | 106 | 81.9 | 60.1 | 12.4
O=C\1N(N\C=C1[N]2C=CN=N2)C3=NC=NC(=C3)N4CCOCC4 | 78.4 | 81.7 | 76.7 | 82.8 | 56.6 | 32.5 | 18.6 | 20.6 | 19.2 | 15.9 | 8.11 | 68.7 | 82.9 | 76.4 | 81 | 74.8 | 46.8 | 13.4 | 30.9 | 16.8 | 15.2 | 11.9 | 74.2 | 83.1 | 78.1 | 78.6 | 72.2 | 47.2 | 34.4 | 38.9 | 20.8 | 26.8 | 17
COC/1=C/C=C2\C(=C/C1=O)[C@H](CCC3=CC(=C(OC)C(=C23)OC)OC)NC(C)=O | 45.1 | 26.4 | 14.5 | 12.8 | 10.9 | 9.53 | 6.89 | 4.02 | 3.71 | 3.18 | 1.19 | 32.3 | 19.7 | 15.6 | 10.3 | 9.46 | 7.35 | 5.7 | 4.23 | 4.86 | 3.24 | 2.12 | 41.3 | 34.3 | 21.5 | 16 | 13.2 | 8.83 | 8.91 | 4.52 | 4.83 | 3.55 | 1.22
